Like-named read-outs stand apart in the source and are kept apart here. Square brackets hold non-standard residues; d marks the D form. Peptide text beside a SMILES is read from it. * marks the point of attachment. Sta = CC(C)C[C@H](N)[C@@H](O)CC(=O)O; Isovaleryl = CC(C)CC(=O)*; Cbz = O=C(OCc1ccccc1)*; Boc = CC(C)(C)OC(=O)*; OBn = c1ccc(CO*)cc1; OtBu = CC(C)(C)O*
Legend:
[1] = biological target: T1, P-glycoprotein (Pgp) purified from MDR CH^RB30 Chinese hamster ovary cells (Cricetulus griseus, UniProt P21448); assay: Quenching of intrinsic Trp fluorescence of purified Pgp by nucleotides, drugs and peptides; settings: for ΔFmax: maximal quenching reached at saturation
Experimental: (§1) Purification of Pgp. Pgp was purified from plasma membrane of MDR CH^RB30 cells by a modification of the method previously described for CH^RC5 (27). […] Contaminating glycoproteins were removed from the S2 fraction by passing through a concanavalinA-Sepharose 4B column (Pharmacia) equilibrated with 2 mM CHAPS buffer. […] The Pgp preparation was kept on ice and used within 24 h.
(§2) Steady-state Fluorescence Measurements. Steady-state fluorescence measurements were performed using a Spex Model DM3000 spectrofluorimeter (Spex Industries Inc., Edison, N.J.) at 22° C., with excitation and emission bandpass set to 4 nm. Most fluorescence studies were carried out on solutions of 100 μg/mL Pgp in 2 mM CHAPS buffer, in the presence of 0.5 mg/mL of the phospholipid PMPC (Avanti Polar Lipids, Alabaster, Ala.). PMPC was added as extruded 100 nm unilamellar vesicles (8). With some drugs, the use of a lipid was not required for the fluorescence measurements. The excitation and emission spectra were the average of three scans, and were corrected by subtracting control scans with the same phospholipid buffer in the absence of protein.
(§3) Quenching Studies using TNP-Nucleotide Derivatives and Drugs. […] Working solutions of TNP-derivatives, and non-peptide drugs and modulators were also prepared in 2 mM CHAPS with 0.5 mg/mL PMPC vesicles, whereas peptide-based drugs and modulators were dissolved in dimethylsulfoxide (DMSO). […] Quenching experiments were performed by successively adding 5 μL aliquots of TNP-derivatives or drug solution to 500 μL of Pgp solution in a 0.5 cm quartz cuvette. After each addition, the sample was excited at 290 nm and the steady-state fluorescence emission was measured at 330 nm. Fluorescence intensities were corrected for dilution, scattering, and the inner filter effect as described elsewhere (8). Control titrations were performed with 30 μM NATA to assess the non-specific quenching of Trp fluorescence by TNP-nucleotide derivatives and drugs.
(§4) The experimental quenching data were computer-fitted to the following equation as described previously (8)(9): [formula]
(§5) where (ΔF/F0 100) is the percent quenching (percent change in fluorescence relative to the initial value), following addition of substrate at a concentration [S], and Kd is the dissociation constant. Fitting was carried out using nonlinear regression with the Marquardt-Levenberg algorithm (SigmaPlot, SPSS Inc., Chicago, Ill.), and values of Kd and (ΔFmax/F0 100) were extracted. For biphasic titration curves, each section of the binding curve was fitted to the above equation separately, as described previously (32).

[2] = biological target: T1, P-glycoprotein (Pgp) purified from MDR CH^RB30 Chinese hamster ovary cells; assay: Trp fluorescence lifetime of purified Pgp in presence of nucleotides and drugs; design: Pgp was purified from plasma membrane of MDR CH^RB30 cells; endogenous in cells; host or cells: MDR CH^RB30 Chinese hamster ovary cells (plasma membrane, CHAPS extraction, concanavalin A-Sepharose pass-through); settings: Pgp Trp decay, concentration of substance
Experimental: as §1
Fluorescence Lifetime Measurements. Fluorescence decays were measured with a PTI Model C-720 fluorescence lifetime instrument ((28), Photon Technology International Inc., Lawrenceville, N.J.) utilizing a proprietary stroboscopic detection technique (29). […] Fluorescence decays were analyzed with a PTI TimeMaster Pro analysis package using a discrete 1- to 4- exponential fit, 1- to 4-exponential global analysis, or lifetime distribution analysis by the Exponential Series Method (ESM) (30). The quality of fits was judged by chi-square values and weighed residuals.

P-glycoprotein (Pgp) = P-glycoprotein (Pgp) (Cricetulus griseus, UniProt P21448); assay: in vitro; settings: Chinese hamster, Kd2
Experimental: as §1, §2, §3, §4, §5

[3] = maximal Trp quenching, single or higher affinity component
[4] = read-out: Kd1, single binding site or high affinity site, 100 μg/mL Pgp, 2 mM CHAPS, 0.5 mg/mL PMPC, 22° C.
[5] = Kd1, single binding site or high affinity site, 100 μg/mL Pgp, 2 mM CHAPS, 0.5 mg/mL PMPC, 22° C.
[6] = maximal Trp quenching, lower affinity component
[7] = read-out: Kd2, lower affinity site of biphasic quench curve

T1 sequence (P21448 whole entry): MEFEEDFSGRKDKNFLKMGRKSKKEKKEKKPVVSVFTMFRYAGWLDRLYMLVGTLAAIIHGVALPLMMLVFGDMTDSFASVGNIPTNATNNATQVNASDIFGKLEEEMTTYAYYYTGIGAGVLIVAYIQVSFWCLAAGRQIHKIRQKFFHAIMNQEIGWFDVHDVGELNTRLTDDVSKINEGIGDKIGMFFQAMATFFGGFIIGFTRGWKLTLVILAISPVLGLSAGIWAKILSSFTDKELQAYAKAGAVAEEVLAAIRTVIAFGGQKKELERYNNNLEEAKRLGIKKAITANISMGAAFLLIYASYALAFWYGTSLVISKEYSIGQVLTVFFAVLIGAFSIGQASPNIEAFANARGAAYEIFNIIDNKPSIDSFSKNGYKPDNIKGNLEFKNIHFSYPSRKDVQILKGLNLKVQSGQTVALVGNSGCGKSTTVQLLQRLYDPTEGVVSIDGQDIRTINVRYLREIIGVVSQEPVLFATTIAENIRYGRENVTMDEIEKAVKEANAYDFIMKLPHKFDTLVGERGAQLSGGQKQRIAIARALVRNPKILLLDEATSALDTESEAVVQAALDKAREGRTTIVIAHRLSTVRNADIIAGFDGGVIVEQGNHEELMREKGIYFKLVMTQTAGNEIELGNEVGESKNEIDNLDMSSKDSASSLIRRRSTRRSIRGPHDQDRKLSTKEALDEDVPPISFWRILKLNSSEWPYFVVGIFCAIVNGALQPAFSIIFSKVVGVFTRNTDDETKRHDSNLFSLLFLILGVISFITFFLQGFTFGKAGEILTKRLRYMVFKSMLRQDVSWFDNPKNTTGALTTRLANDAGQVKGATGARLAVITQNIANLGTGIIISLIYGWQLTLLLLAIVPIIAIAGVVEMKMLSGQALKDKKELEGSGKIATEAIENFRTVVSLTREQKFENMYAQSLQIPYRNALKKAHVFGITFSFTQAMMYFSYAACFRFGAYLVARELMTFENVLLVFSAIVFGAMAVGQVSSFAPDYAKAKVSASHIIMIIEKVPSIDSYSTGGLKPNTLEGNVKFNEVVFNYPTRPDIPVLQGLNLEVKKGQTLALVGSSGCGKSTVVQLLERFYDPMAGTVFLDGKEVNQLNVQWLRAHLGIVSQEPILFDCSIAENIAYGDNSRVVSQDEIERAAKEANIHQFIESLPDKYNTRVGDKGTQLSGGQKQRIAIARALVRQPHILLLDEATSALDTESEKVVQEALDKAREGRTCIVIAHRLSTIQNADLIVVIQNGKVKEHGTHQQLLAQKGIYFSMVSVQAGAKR
Chain of P-glycoprotein (Pgp) (P21448 whole entry): as above

Nc1ncnc2c1ncn2[C@@H]1O[C@H](COP(=O)([O-])OP(=O)([O-])O)[C@@H](O)[C@H]1O.[Na+].[Na+] [ADP, disodium-ADP]
ΔFmax1 [1, 3]: 9.46%
ΔFmax [1]: ~10%
Kd [1, 4]: 330 µM
Kd ([1]; single type of binding site): ~300 µM

Nc1ncnc2c1ncn2C1OC(COP(=O)(O)OP(=O)(O)NP(=O)(O)O)C(O)C1O (stereo not shown) [AMP-PNP, 5′-adenylylimido-diphosphate]
ΔFmax1 [1, 3]: 10.6%
ΔFmax [1]: ~10%
Kd ([1]; single type of binding site): 210 µM

Nc1ncnc2c1ncn2[C@@H]1O[C@H](COP(=O)(O)OP(=O)([O-])OP(=O)([O-])O)[C@@H](O)[C@H]1O.[Na+].[Na+] [ATP, disodium-ATP]
ΔFmax1 [1, 3]: 10.4%
ΔFmax [1]: ~10%
Kd [1, 4]: 280 µM
Kd ([1]; single type of binding site): ~300 µM

CCCCCCCCCCCCCCCCCCOP(=O)([O-])OC1CC[N+](C)(C)CC1 [D21266]
ΔFmax1 [1, 3]: 13.0 ± 1.15%
Kd [1, 4]: 20.1 ± 3.4 µM

CCCCCCCCCCCCCCCCCCOP(=O)(O)OCC[N+]1(C)CCCCC1 [D-20133]
ΔFmax1 [1, 3]: 12.3 ± 0.89%
Kd [1, 4]: 12.8 ± 2.1 µM

CCOc1ccc(-c2nc3ccc(-c4nc5ccc(N6CCN(C)CC6)cc5[nH]4)cc3[nH]2)cc1 [Hoechst 33342]
ΔFmax1 [1, 3]: 57.2 ± 1.97%
Kd [1, 4]: 2.61 ± 0.182 µM

O=c1cc(N2CCOCC2)oc2c(-c3ccccc3)cccc12 [LY294002]
Kd [1, 5]: 6.29 ± 0.88 µM
Kd ([1]; Kd2, lower affinity site of biphasic quench curve): 11.5 ± 1.5 µM
ΔFmax2 [1, 6]: 36.2 ± 2.0%
ΔFmax1 [1, 3]: 29.7 ± 1.6%

C/C=C/C[C@@H](C)C(=O)[C@H]1C(=O)N[C@@H](C(C)C)C(=O)N(C)CC(=O)N(C)[C@@H](CC(C)C)C(=O)N[C@@H](C(C)C)C(=O)N(C)[C@@H](CC(C)C)C(=O)N[C@@H](C)C(=O)N[C@H](C)C(=O)N(C)[C@@H](CC(C)C)C(=O)N(C)[C@@H](CC(C)C)C(=O)N(C)[C@@H](C(C)C)C(=O)N1C [PSC833]
Kd [1]: 0.081 ± 0.0071 µM
ΔFmax1 [1, 3]: 4.02 ± 0.079%

COc1cc2c(c(OC)c1OC)-c1ccc(OC)c(=O)cc1[C@@H](NC(C)=O)CC2 [colchicine]
ΔFmax1 [1, 3]: 102.2 ± 5.7%
<tav> (amplitude average lifetime) [2]: 2.63 ns
a1 (pre-exponential value) [2]: 0.66
a2 (pre-exponential value) [2]: 0.39
t1 (fluorescence lifetime) [2]: 1.4 ns
t2 (fluorescence lifetime) [2]: 4.7 ns

COc1cccc2c1C(=O)c1c(O)c3c(c(O)c1C2=O)C[C@@](O)(C(C)=O)C[C@@H]3O[C@H]1C[C@H](N)[C@H](O)[C@H](C)O1 [daunorubicin]
Kd (P-glycoprotein (Pgp)): 10.7 ± 1.7 µM
Kd [1]: 2.97 ± 0.38 µM
ΔFmax1 [1]: 22.7 ± 1.3%
ΔFmax2 [1]: 38.2 ± 2.4%
<tav> (amplitude average lifetime) [2]: 2.61 ns
a1 (pre-exponential value) [2]: 0.71
a2 (pre-exponential value) [2]: 0.52
t1 (fluorescence lifetime) [2]: 1.3 ns
t2 (fluorescence lifetime) [2]: 4.4 ns

COc1cccc2c1C(=O)c1c(O)c3c(c(O)c1C2=O)C[C@@](O)(C(=O)CO)C[C@@H]3O[C@H]1C[C@H](N)[C@H](O)[C@H](C)O1 [doxorubicin]
Kd (P-glycoprotein (Pgp)): 21.6 ± 3.2 µM
Kd [1]: 5.44 ± 0.55 µM
ΔFmax2 [1, 6]: 38.7 ± 3.0%
ΔFmax1 [1, 3]: 19.5 ± 0.90%

CCCCCCCCCCCCCCCCOP(=O)([O-])OCC[N+](C)(C)C [mitelfosine]
ΔFmax1 [1]: 12.0 ± 1.0%
Kd [1, 4]: 20.6 ± 3.3 µM

CC(C)CC(=O)N[C@H](C(=O)N[C@H](C(=O)N[C@@H](CC(C)C)[C@@H](O)CC(=O)N[C@@H](C)C(=O)N[C@@H](CC(C)C)[C@@H](O)CC(=O)O)C(C)C)C(C)C [pepstatin A] (Isovaleryl-VV[Sta]A[Sta]-OH)
Kd [1, 5]: 9.53 ± 0.78 µM
ΔFmax1 [1, 3]: 4.46 ± 0.073%

C=C[C@H]1C[N@@]2CC[C@H]1C[C@H]2[C@H](O)c1ccnc2ccc(OC)cc12 [quinine]
ΔFmax1 [1]: 33.5 ± 2.2%

CC(C)(C)OC(=O)N[C@@H](CC(=O)OCc1ccccc1)C(=O)N[C@@H](CCCCNC(=O)OCc1ccccc1)C(=O)OC(C)(C)C [reversin 201] (Boc-Asp(OBn)-Lys(Cbz)-OtBu; N-terminus and C-terminus assumed)
Kd ([1]; Kd1): 0.23 ± 0.02 µM

COC(=O)[C@H](CCCCNC(=O)[C@H](CCC(=O)OCc1ccccc1)NC(=O)OC(C)(C)C)NC(=O)[C@H](CCC(=O)OCc1ccccc1)NC(=O)OC(C)(C)C [reversin 205]
Kd ([1]; Kd1): 0.37 ± 0.037 µM
ΔFmax1 [1, 3]: 5.41 ± 0.13%

CCN(CC)c1ccc2c(-c3ccccc3C(=O)O)c3ccc(=[N+](CC)CC)cc-3oc2c1 [rhodamine B]
Kd [1, 4]: 4 ± 0.45 µM
Kd [1, 7]: 33.2 ± 3.1 µM

CC(C)[C@@H]1NC(=O)[C@H](C)OC(=O)[C@@H](C(C)C)NC(=O)[C@@H](C(C)C)OC(=O)[C@H](C(C)C)NC(=O)[C@H](C)OC(=O)[C@@H](C(C)C)NC(=O)[C@@H](C(C)C)OC(=O)[C@H](C(C)C)NC(=O)[C@H](C)OC(=O)[C@@H](C(C)C)NC(=O)[C@@H](C(C)C)OC1=O [valinomycin]
Kd [1]: 0.72 ± 0.084 µM
ΔFmax1 [1, 3]: 4.14 ± 0.086%

CC[C@]1(O)C[C@@H]2CN(CCc3c([nH]c4ccccc34)[C@@](C(=O)OC)(c3cc4c(cc3OC)N(C)[C@H]3[C@@](O)(C(=O)OC)[C@H](OC(C)=O)[C@]5(CC)C=CCN6CC[C@]43[C@@H]65)C2)C1 [vinblastine]
Kd [1]: 0.5 ± 0.08 µM
ΔFmax1 [1, 3]: 17.5 ± 0.82%
<tav> (amplitude average lifetime) [2]: 2.17 ns
a1 (pre-exponential value) [2]: 1.07
a2 (pre-exponential value) [2]: 0.51
t1 (fluorescence lifetime) [2]: 1.1 ns
t2 (fluorescence lifetime) [2]: 4.4 ns

TNP-ATP
ΔFmax1 [1, 3]: 79.6%
ΔFmax [1]: ~80%
Kd ([1]; nucleotide alone, absence of drug): 51 µM
Kd [1, 4]: 50.6 µM
Kd ([1]; titration following daunorubicin binding): 65 µM
Kd ([1]; titration following saturation with vinblastine): 64 µM
<tav> (amplitude average lifetime) [2]: 2.14 ns
a1 (pre-exponential value) [2]: 0.69
a2 (pre-exponential value) [2]: 0.42
t1 (fluorescence lifetime) [2]: 1.0 ns
t2 (fluorescence lifetime) [2]: 4.0 ns

rhodamine 123
Kd [1]: 6.81 ± 0.71 µM
ΔFmax2 [1, 6]: 107.2 ± 1.8%
ΔFmax1 [1, 3]: 47.5 ± 2.5%
ΔFmax [1]: ~100%
Kd [1, 7]: 29.8 ± 1 µM
<tav> (amplitude average lifetime) [2]: 2.73 ns
a1 (pre-exponential value) [2]: 0.65
a2 (pre-exponential value) [2]: 0.43
t1 (fluorescence lifetime) [2]: 1.5 ns
t2 (fluorescence lifetime) [2]: 4.6 ns

tetramethylrosamine
ΔFmax1 [1]: 21.0 ± 3.3%
ΔFmax2 [1]: 32.8 ± 0.88%
<tav> (amplitude average lifetime) [2]: 3.9 ns
a1 (pre-exponential value) [2]: 2.43
a2 (pre-exponential value) [2]: 1.1
t1 (fluorescence lifetime) [2]: 0.55 ns

From patent US20040029100A1, “Rapid screen to identify p-glycoprotein substrates and high affinity modulators” (priority 2000, published 2004)
